Results published in ChEMBL document CHEMBL4196007, “Design, synthesis and biological evaluation of novel 4-aminoquinazolines as dual target inhibitors of EGFR-PI3Kα” (Eur J Med Chem, 2018).

Experiments:
A549 = experiment: Cytotoxicity against human A549 cells after 72 hrs by SRB assay; type: functional, cell-based; conditions: A549, 72 h
SNU-638 = experiment: Cytotoxicity against human SNU638 cells after 72 hrs by SRB assay; type: functional, cell-based; conditions: SNU-638, 72 h
BT-549 = experiment: Cytotoxicity against human BT549 cells after 72 hrs by SRB assay; type: functional, cell-based; conditions: BT-549, 72 h
HCT-116 = experiment: Cytotoxicity against human HCT116 cells after 72 hrs by SRB assay; type: functional, cell-based; conditions: HCT-116, 72 h
SK-HEP1 = experiment: Cytotoxicity against human SKHEP1 cells after 72 hrs by SRB assay; type: functional, cell-based; conditions: SK-HEP1, 72 h
MCF7 = experiment: Cytotoxicity against human MCF7 cells after 72 hrs by SRB assay; type: functional, cell-based; conditions: MCF7, 72 h
[1] = molecular target: Phosphatidylinositol 4,5-bisphosphate 3-kinase catalytic subunit beta isoform (Homo sapiens, UniProt P42338); experiment: Inhibition of PI3K p110beta (unknown origin) using PIP2 as substrate by ELISA
Phosphatidylinositol 4,5-bisphosphate 3-kinase catalytic subunit beta isoform, sequence (P42338 whole entry, canonical isoform): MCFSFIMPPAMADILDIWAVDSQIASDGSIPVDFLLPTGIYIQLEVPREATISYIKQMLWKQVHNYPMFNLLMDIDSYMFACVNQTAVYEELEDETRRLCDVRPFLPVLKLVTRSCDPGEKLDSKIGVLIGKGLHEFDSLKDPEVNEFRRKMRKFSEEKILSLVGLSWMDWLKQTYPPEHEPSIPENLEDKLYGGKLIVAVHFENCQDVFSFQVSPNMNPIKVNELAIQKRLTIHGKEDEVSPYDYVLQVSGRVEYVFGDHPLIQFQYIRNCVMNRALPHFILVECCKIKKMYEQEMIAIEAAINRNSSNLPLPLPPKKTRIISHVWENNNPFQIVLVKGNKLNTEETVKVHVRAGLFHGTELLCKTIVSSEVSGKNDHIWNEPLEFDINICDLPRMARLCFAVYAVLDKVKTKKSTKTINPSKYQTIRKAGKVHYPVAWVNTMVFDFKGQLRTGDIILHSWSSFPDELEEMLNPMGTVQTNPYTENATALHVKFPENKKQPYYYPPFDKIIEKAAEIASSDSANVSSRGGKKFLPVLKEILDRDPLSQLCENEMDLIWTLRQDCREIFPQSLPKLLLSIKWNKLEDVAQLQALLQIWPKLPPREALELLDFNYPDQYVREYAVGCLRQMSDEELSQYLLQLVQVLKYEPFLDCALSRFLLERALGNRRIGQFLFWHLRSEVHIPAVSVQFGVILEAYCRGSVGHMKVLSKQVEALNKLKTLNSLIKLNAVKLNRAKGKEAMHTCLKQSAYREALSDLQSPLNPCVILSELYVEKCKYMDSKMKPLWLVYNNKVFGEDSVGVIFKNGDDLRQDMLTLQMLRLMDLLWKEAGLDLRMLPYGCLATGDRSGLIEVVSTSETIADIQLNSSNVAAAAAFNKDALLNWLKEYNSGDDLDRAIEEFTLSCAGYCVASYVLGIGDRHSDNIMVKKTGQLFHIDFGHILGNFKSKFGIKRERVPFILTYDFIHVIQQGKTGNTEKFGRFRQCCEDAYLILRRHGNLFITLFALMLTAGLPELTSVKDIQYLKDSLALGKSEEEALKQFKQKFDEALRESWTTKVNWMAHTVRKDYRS

[2] = molecular target: Phosphatidylinositol 4,5-bisphosphate 3-kinase catalytic subunit alpha isoform (Homo sapiens, UniProt P42336); experiment: Inhibition of PI3K p110alpha (unknown origin) using PIP2 as substrate by ELISA
Phosphatidylinositol 4,5-bisphosphate 3-kinase catalytic subunit alpha isoform, sequence (P42336 whole entry, canonical isoform): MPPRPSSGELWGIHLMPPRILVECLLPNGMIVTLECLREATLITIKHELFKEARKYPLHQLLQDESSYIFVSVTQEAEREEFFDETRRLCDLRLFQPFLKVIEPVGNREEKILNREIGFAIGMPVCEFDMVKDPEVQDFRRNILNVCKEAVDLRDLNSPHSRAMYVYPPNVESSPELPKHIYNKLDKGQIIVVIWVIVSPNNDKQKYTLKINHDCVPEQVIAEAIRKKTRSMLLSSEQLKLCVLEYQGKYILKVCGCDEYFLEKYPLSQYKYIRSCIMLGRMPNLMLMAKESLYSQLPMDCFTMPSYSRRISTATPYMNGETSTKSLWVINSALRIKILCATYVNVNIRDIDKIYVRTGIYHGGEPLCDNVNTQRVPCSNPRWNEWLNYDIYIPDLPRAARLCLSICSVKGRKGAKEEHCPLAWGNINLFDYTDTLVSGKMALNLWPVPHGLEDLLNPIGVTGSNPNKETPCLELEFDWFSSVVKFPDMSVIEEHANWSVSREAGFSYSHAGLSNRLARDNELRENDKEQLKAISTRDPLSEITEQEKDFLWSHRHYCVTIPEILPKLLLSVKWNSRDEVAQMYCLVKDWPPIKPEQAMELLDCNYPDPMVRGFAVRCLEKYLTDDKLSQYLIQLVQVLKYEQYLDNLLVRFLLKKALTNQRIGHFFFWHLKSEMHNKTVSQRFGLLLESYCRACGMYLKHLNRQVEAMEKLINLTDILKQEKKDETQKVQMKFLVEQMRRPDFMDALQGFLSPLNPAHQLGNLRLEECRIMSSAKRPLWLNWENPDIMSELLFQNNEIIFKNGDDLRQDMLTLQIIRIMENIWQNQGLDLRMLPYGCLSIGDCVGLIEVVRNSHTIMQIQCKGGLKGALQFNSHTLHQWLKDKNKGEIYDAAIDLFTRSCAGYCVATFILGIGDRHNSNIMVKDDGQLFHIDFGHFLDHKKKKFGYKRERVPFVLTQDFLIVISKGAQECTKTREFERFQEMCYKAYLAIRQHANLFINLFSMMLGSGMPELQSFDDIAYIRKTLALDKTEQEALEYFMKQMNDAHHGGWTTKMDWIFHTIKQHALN

[3] = molecular target: T1, Phosphatidylinositol 4,5-bisphosphate 3-kinase catalytic subunit delta isoform (Homo sapiens, UniProt O00329); experiment: Inhibition of PI3K p110delta (unknown origin) using PIP2 as substrate by ELISA
T1 sequence (O00329 whole entry): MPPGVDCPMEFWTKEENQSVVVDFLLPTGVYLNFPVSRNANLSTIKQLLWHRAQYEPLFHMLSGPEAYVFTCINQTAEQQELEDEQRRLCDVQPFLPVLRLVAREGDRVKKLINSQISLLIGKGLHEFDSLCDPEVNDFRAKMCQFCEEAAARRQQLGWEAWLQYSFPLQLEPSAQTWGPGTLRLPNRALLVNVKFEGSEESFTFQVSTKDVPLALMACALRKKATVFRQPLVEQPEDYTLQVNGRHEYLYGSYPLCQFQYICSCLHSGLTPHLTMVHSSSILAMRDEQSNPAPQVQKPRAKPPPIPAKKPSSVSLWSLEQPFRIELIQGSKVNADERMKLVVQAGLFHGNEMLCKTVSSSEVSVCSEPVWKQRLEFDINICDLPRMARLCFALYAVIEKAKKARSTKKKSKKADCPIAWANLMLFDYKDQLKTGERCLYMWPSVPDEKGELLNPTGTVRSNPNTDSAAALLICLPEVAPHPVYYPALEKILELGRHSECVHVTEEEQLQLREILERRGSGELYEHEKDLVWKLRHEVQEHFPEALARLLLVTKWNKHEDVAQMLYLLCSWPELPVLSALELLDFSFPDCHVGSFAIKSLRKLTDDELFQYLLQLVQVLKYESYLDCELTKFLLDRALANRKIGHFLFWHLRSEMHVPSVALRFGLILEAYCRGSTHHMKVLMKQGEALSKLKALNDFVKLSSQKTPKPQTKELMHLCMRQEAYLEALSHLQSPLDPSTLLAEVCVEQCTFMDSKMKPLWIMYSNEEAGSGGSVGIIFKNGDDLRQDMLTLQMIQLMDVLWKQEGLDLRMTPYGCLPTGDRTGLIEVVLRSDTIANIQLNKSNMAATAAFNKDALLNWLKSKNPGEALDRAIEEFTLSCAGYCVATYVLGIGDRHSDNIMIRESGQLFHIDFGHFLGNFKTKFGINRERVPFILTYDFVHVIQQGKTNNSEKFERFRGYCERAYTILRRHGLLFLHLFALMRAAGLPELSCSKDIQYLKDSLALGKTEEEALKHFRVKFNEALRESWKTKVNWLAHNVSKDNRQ

[4] = molecular target: Phosphatidylinositol 4,5-bisphosphate 3-kinase catalytic subunit gamma isoform (Homo sapiens, UniProt P48736); experiment: Inhibition of PI3K p110gamma (unknown origin) using PIP2 as substrate by ELISA
Phosphatidylinositol 4,5-bisphosphate 3-kinase catalytic subunit gamma isoform, sequence (P48736 whole entry, canonical isoform): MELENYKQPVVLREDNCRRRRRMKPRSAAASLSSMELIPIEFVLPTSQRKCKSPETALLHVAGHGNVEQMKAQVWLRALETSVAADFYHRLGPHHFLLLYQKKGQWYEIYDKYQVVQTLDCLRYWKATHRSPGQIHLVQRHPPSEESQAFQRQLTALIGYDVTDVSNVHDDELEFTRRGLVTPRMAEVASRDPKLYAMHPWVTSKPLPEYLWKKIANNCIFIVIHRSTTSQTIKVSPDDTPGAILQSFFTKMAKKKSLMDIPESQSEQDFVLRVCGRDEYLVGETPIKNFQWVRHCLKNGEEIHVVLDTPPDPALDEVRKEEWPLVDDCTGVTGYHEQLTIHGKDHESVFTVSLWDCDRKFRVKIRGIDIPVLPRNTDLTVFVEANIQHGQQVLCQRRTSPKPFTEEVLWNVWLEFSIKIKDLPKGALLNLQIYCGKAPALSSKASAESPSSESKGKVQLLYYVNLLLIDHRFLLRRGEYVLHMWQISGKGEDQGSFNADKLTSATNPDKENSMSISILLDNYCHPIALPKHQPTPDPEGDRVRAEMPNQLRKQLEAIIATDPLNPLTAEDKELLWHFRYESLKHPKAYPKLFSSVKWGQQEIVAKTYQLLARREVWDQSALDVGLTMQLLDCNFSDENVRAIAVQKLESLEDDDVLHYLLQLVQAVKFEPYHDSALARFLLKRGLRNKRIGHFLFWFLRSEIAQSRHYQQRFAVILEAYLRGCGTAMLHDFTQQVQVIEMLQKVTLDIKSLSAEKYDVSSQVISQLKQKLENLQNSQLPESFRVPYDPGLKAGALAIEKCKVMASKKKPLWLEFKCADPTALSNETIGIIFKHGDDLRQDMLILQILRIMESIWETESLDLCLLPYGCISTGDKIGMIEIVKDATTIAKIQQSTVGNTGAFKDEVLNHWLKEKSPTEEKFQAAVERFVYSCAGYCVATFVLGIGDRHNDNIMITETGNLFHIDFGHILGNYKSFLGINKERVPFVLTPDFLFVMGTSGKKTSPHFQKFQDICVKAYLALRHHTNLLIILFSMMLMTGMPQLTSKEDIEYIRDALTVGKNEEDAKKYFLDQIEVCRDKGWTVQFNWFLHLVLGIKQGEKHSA

[5] = molecular target: Epidermal growth factor receptor (Homo sapiens, UniProt P00533); experiment: Inhibition of EGFR (unknown origin) using FAM-labeled peptide as substrate preincubated for 10 mins followed by substrate addition and measured after 1 hr by mobility shift assay
Epidermal growth factor receptor, sequence (P00533 whole entry): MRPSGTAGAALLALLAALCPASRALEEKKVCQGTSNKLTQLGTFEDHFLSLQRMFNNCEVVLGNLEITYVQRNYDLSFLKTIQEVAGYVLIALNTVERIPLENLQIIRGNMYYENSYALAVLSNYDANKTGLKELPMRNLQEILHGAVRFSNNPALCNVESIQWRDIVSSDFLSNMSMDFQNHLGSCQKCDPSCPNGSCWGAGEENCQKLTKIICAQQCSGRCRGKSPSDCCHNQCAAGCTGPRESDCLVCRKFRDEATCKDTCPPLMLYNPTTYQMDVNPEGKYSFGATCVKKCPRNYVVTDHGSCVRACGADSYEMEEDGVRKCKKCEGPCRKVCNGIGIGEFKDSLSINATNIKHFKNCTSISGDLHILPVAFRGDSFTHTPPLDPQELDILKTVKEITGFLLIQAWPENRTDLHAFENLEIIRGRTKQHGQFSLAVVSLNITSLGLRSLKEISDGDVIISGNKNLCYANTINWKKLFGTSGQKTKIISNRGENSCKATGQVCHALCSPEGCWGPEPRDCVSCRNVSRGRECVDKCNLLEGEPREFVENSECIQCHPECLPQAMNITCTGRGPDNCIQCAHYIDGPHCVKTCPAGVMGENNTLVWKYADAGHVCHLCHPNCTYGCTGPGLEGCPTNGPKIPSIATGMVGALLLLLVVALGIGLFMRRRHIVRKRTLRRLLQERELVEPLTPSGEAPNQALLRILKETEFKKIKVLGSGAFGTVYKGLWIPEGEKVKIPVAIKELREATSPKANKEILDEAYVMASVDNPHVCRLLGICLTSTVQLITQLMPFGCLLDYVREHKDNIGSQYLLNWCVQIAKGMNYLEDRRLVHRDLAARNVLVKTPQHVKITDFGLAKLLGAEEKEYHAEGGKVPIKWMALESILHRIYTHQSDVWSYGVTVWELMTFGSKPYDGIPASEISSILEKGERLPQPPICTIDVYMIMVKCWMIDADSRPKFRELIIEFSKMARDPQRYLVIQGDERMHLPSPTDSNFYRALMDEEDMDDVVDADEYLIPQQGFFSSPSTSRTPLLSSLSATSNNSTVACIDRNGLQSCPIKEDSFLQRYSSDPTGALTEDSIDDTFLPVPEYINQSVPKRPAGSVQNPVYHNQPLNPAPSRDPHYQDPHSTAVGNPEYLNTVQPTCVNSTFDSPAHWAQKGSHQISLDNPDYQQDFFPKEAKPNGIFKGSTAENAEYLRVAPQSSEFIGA

| IC50 [1] | IC50 [2] | IC50 [3] | IC50 [4] | IC50 [5] | Compound | IC50 (A549) | IC50 (SNU-638) | IC50 (BT-549) | IC50 (HCT-116) | IC50 (SK-HEP1) | IC50 (MCF7) |
| --- | --- | --- | --- | --- | --- | --- | --- | --- | --- | --- | --- |
| – | – | – | – | – | CCS(=O)(=O)Nc1cc(-c2ccc3ncnc(Nc4cccc(F)c4)c3c2)cnc1OC | 9.94 µM | 2.76 µM | 2.76 µM | 3.94 µM | 1.85 µM | 8.02 µM |
| – | – | – | – | – | CCS(=O)(=O)Nc1cc(-c2ccc3ncnc(Nc4ccc(OCc5ccc(F)cc5)c(Cl)c4)c3c2)cnc1OC | 31.3 µM | 2.36 µM | 14.6 µM | 5.41 µM | 1.95 µM | 28.4 µM |
| – | – | – | – | – | CCS(=O)(=O)Nc1cc(-c2ccc3ncnc(Nc4ccc(F)nc4)c3c2)cnc1OC | 6.72 µM | 6.52 µM | 4.78 µM | 7.62 µM | 5.24 µM | 5.39 µM |
| – | – | – | – | – | CCS(=O)(=O)Nc1cc(-c2ccc3ncnc(Nc4ccc(C(=O)OC)c(OC)c4)c3c2)cnc1OC | 3.35 µM | 3.44 µM | 3.76 µM | 1.69 µM | 0.83 µM | 10.9 µM |
| – | – | – | – | – | CCS(=O)(=O)Nc1cc(-c2ccc3ncnc(Nc4ccc(OC)cc4)c3c2)cnc1OC | 3.58 µM | 3.97 µM | 1.88 µM | 3.49 µM | 1.61 µM | 1.79 µM |
| – | – | – | – | – | CCS(=O)(=O)Nc1cc(-c2ccc3ncnc(Nc4ccc(OC)c(OC)c4)c3c2)cnc1OC | 5.82 µM | 1.68 µM | 2.59 µM | 4.36 µM | 2.84 µM | 2.43 µM |
| 4.94 µM | 0.165 µM | 4.36 µM | 1.78 µM | 0.409 µM | CCS(=O)(=O)Nc1cc(-c2ccc3ncnc(Nc4cccc(C(=O)OC)c4)c3c2)cnc1OC | 1.1 µM | 1.12 µM | 1.08 µM | 0.4 µM | 2.4 µM | 10.1 µM |
| – | – | – | – | – | CCS(=O)(=O)Nc1cc(-c2ccc3ncnc(Nc4ccc(OC)c(Cl)c4)c3c2)cnc1OC | 5.24 µM | 3.62 µM | 2.47 µM | 5.62 µM | 2.81 µM | 3.32 µM |
| – | – | – | – | – | Cn1c(=O)n(-c2ccc(C(C)(C)C#N)cc2)c2c3cc(-c4cnc5ccccc5c4)ccc3ncc21 [DACTOLISIB] | 0.62 µM | 1.24 µM | 0.74 µM | 0.84 µM | 1.82 µM | 1.33 µM |
| – | – | – | – | – | CCS(=O)(=O)Nc1cc(-c2ccc3ncnc(Nc4ccc(OC)nc4)c3c2)cnc1OC | 5.56 µM | 4.28 µM | 3.49 µM | 6.91 µM | 3.44 µM | 3.77 µM |
| – | – | – | – | – | CCS(=O)(=O)Nc1cc(-c2ccc3ncnc(Nc4ccc(OC(F)(F)F)cc4)c3c2)cnc1OC | 25.4 µM | 22.4 µM | 8.24 µM | 16.6 µM | 6.14 µM | 23.7 µM |
| – | – | – | – | – | CCS(=O)(=O)Nc1cc(-c2ccc3ncnc(Nc4ccc(F)c(C(=O)OC)c4)c3c2)cnc1OC | 3.42 µM | 2.54 µM | 2.74 µM | 2.36 µM | 5.18 µM | 1.15 µM |
| – | – | – | – | – | CCCCS(=O)(=O)Nc1cc(-c2ccc3ncnc(Nc4ccc(F)c(Cl)c4)c3c2)cnc1OC | 77.1 µM | 5.35 µM | 56.8 µM | 9.99 µM | 53.8 µM | 65.8 µM |
| – | – | – | – | – | CCS(=O)(=O)Nc1cc(-c2ccc3ncnc(Nc4ccc(Cl)c(C(=O)OC)c4)c3c2)cnc1OC | 2.13 µM | 2.2 µM | 2.36 µM | 3.13 µM | 7.06 µM | 1.43 µM |
| – | – | – | – | – | CCS(=O)(=O)Nc1cc(-c2ccc3ncnc(Nc4ccc(F)cc4F)c3c2)cnc1OC | 4.71 µM | 2.05 µM | 2.48 µM | 4.01 µM | 2.49 µM | 1.61 µM |
| – | – | – | – | – | COC(=O)c1cccc(Nc2ncnc3ccc(-c4cnc(OC)c(NS(=O)(=O)c5ccc(F)cc5F)c4)cc23)c1 | 10.5 µM | 0.4 µM | 12.7 µM | 1.5 µM | 2.8 µM | 22.4 µM |
| – | – | – | – | – | CCS(=O)(=O)Nc1cc(-c2ccc3ncnc(Nc4ccc(F)cc4)c3c2)cnc1OC | 7.62 µM | 2.4 µM | 3.12 µM | 3.16 µM | 1.47 µM | 6.51 µM |
| – | – | – | – | – | CCCCS(=O)(=O)Nc1cc(-c2ccc3ncnc(Nc4cccc(C(=O)OCC)c4)c3c2)cnc1OC | 42.3 µM | 25.2 µM | 37.2 µM | 26.7 µM | 21.6 µM | 36.4 µM |
